Experimental data reported in patent US20200024278A1, “COMPOSITION COMPRISING ANTIBIOTIC COMPOUND AND AN HETEROCYCLIC COMPOUND AND THEIR USE IN PREVENTING OR TREATING BACTERIAL INFECTIONS” (MUTABILIS, priority 2016, published 2020).

Columns and labels:
Assay in all cases: MIC, broth microdilution (CLSI), substance alone or ATB combined with compound at 4 or 8 μg/mL
Format in all cases: cell-based, A. baumannii
ABA UFR160 = test system: ABA UFR160
Method: (§1) Compounds of the present invention were assessed against genotyped bacterial strains alone or in combination with an antibacterial. In the assays, MICs of said compounds or combination of antibiotics with fixed concentrations of said compounds (4 or 8 μg/mL) were determined by the broth microdilution method according to the Clinical Laboratory Standards Institute (CLSI-M7-A7). Briefly, compounds alone according to the invention were prepared in DMSO and spotted (2 μL each) on sterile polystyrene plates (Corning, 3788). Combinations of compounds and antibiotics dilutions were prepared in DMSO and spotted (1 μL each) on sterile polystyrene plates (Corning, 3788). Log phase bacterial suspensions were adjusted to a final density of 5·10^5 CFU/mL in cation-adjusted Mueller-Hinton broth (ca-MHB; Becton-Dickinson and Company) and added to each well (98 μL). Assays including Fosfomycin were supplemented with 25 μg/ml of Glucose-6-phosphate. Microplates were incubated for 16-20 h at 35° C. in ambient air. The MIC of the compounds was defined as the lowest concentration of said compounds that prevented bacterial growth as read by visual inspection. The MIC of ATB at each compound concentration was defined as the lowest concentration of ATB that prevented bacterial growth as read by visual inspection.

ABA UFR152 = test system: ABA UFR152
Method: as §1

ABA UFR158 = test system: ABA UFR158
Method: as §1

ABA UFR156 = test system: ABA UFR156
Method: as §1

ABA UFR159 = test system: ABA UFR159
Method: as §1

ABA UFR153 = test system: ABA UFR153
Method: as §1

ABA 107292 = test system: ABA 107292
Method: as §1

Q: What does the source list for `CC1(C)[C@H](C(=O)O)N2C(=O)C[C@H]2S1(=O)=O` [SUL]?
A: MIC ATB alone (ABA UFR160; antibiotic alone): >128 µg/mL; MIC ATB combined with Example 1 @8 μg/ml (ABA UFR160; with Example 1 @8 μg/ml): 64 µg/mL; MIC ATB combined with Example 3 @8 μg/ml (ABA UFR160; with Example 3 @8 μg/ml): 64 µg/mL; MIC ATB combined with Example 6 @8 μg/ml (ABA UFR160; with Example 6 @8 μg/ml): <0.25 µg/mL; MIC ATB combined with Example 9 @4 μg/ml (ABA UFR160; with Example 9 @4 μg/ml): 64 µg/mL; MIC ATB combined with Example 10 @8 μg/ml (ABA UFR160; with Example 10 @8 μg/ml): 64 µg/mL; MIC ATB combined with Example 11 @8 μg/ml (ABA UFR160; with Example 11 @8 μg/ml): 64 µg/mL; MIC ATB combined with Example 12 @8 μg/ml (ABA UFR160; with Example 12 @8 μg/ml): 64 µg/mL; MIC ATB combined with Example 15 @4 μg/ml (ABA UFR160; with Example 15 @4 μg/ml): 64 µg/mL; MIC ATB alone (ABA UFR152; antibiotic alone): 4 µg/mL; MIC ATB combined with Example 1 @8 μg/ml (ABA UFR152; with Example 1 @8 μg/ml): 4 µg/mL; MIC ATB combined with Example 3 @8 μg/ml (ABA UFR152; with Example 3 @8 μg/ml): 1 µg/mL; MIC ATB combined with Example 6 @8 μg/ml (ABA UFR152; with Example 6 @8 μg/ml): 2 µg/mL; MIC ATB combined with Example 9 @4 μg/ml (ABA UFR152; with Example 9 @4 μg/ml): 2 µg/mL; MIC ATB combined with Example 10 @8 μg/ml (ABA UFR152; with Example 10 @8 μg/ml): 1 µg/mL; MIC ATB combined with Example 11 @8 μg/ml (ABA UFR152; with Example 11 @8 μg/ml): 1 µg/mL; MIC ATB combined with Example 12 @8 μg/ml (ABA UFR152; with Example 12 @8 μg/ml): 1 µg/mL; MIC ATB combined with Example 15 @4 μg/ml (ABA UFR152; with Example 15 @4 μg/ml): 2 µg/mL; MIC ATB alone (ABA UFR158; antibiotic alone): 64 µg/mL; MIC ATB combined with Example 1 @8 μg/ml (ABA UFR158; with Example 1 @8 μg/ml): 16 µg/mL; MIC ATB combined with Example 3 @8 μg/ml (ABA UFR158; with Example 3 @8 μg/ml): 16 µg/mL; MIC ATB combined with Example 6 @8 μg/ml (ABA UFR158; with Example 6 @8 μg/ml): <0.25 µg/mL; MIC ATB combined with Example 9 @4 μg/ml (ABA UFR158; with Example 9 @4 μg/ml): 16 µg/mL; MIC ATB combined with Example 10 @8 μg/ml (ABA UFR158; with Example 10 @8 μg/ml): 16 µg/mL; MIC ATB combined with Example 11 @8 μg/ml (ABA UFR158; with Example 11 @8 μg/ml): 16 µg/mL; MIC ATB combined with Example 12 @8 μg/ml (ABA UFR158; with Example 12 @8 μg/ml): 16 µg/mL; MIC ATB combined with Example 15 @4 μg/ml (ABA UFR158; with Example 15 @4 μg/ml): 32 µg/mL; MIC ATB alone (ABA UFR156; antibiotic alone): 64 µg/mL; MIC ATB combined with Example 1 @8 μg/ml (ABA UFR156; with Example 1 @8 μg/ml): 16 µg/mL; MIC ATB combined with Example 3 @8 μg/ml (ABA UFR156; with Example 3 @8 μg/ml): 2 µg/mL; MIC ATB combined with Example 6 @8 μg/ml (ABA UFR156; with Example 6 @8 μg/ml): 4 µg/mL; MIC ATB combined with Example 9 @4 μg/ml (ABA UFR156; with Example 9 @4 μg/ml): 16 µg/mL; MIC ATB combined with Example 10 @8 μg/ml (ABA UFR156; with Example 10 @8 μg/ml): 1 µg/mL; MIC ATB combined with Example 11 @8 μg/ml (ABA UFR156; with Example 11 @8 μg/ml): 8 µg/mL; MIC ATB combined with Example 12 @8 μg/ml (ABA UFR156; with Example 12 @8 μg/ml): 4 µg/mL; MIC ATB combined with Example 15 @4 μg/ml (ABA UFR156; with Example 15 @4 μg/ml): 8 µg/mL; MIC ATB alone (ABA UFR159; antibiotic alone): 256 µg/mL; MIC ATB combined with Example 1 @8 μg/ml (ABA UFR159; with Example 1 @8 μg/ml): 128 µg/mL; MIC ATB combined with Example 3 @8 μg/ml (ABA UFR159; with Example 3 @8 μg/ml): 128 µg/mL; MIC ATB combined with Example 6 @8 μg/ml (ABA UFR159; with Example 6 @8 μg/ml): 128 µg/mL; MIC ATB combined with Example 9 @4 μg/ml (ABA UFR159; with Example 9 @4 μg/ml): 128 µg/mL; MIC ATB combined with Example 10 @8 μg/ml (ABA UFR159; with Example 10 @8 μg/ml): 128 µg/mL; MIC ATB combined with Example 11 @8 μg/ml (ABA UFR159; with Example 11 @8 μg/ml): 128 µg/mL; MIC ATB combined with Example 12 @8 μg/ml (ABA UFR159; with Example 12 @8 μg/ml): 128 µg/mL; MIC ATB combined with Example 15 @4 μg/ml (ABA UFR159; with Example 15 @4 μg/ml): 128 µg/mL; MIC ATB alone (ABA UFR153; antibiotic alone): 4 µg/mL; MIC ATB combined with Example 1 @8 μg/ml (ABA UFR153; with Example 1 @8 μg/ml): 1 µg/mL; MIC ATB combined with Example 3 @8 μg/ml (ABA UFR153; with Example 3 @8 μg/ml): <=0.25 μg/mL; MIC ATB combined with Example 6 @8 μg/ml (ABA UFR153; with Example 6 @8 μg/ml): <=0.25 μg/mL; MIC ATB combined with Example 9 @4 μg/ml (ABA UFR153; with Example 9 @4 μg/ml): 0.5 µg/mL; MIC ATB combined with Example 10 @8 μg/ml (ABA UFR153; with Example 10 @8 μg/ml): <=0.25 μg/mL; MIC ATB combined with Example 11 @8 μg/ml (ABA UFR153; with Example 11 @8 μg/ml): <=0.25 μg/mL; MIC ATB combined with Example 12 @8 μg/ml (ABA UFR153; with Example 12 @8 μg/ml): <=0.25 μg/mL; MIC ATB combined with Example 15 @4 μg/ml (ABA UFR153; with Example 15 @4 μg/ml): <=0.25 μg/mL; MIC ATB alone (ABA 107292; antibiotic alone): 64 µg/mL; MIC ATB combined with Example 1 @8 μg/ml (ABA 107292; with Example 1 @8 μg/ml): 4 µg/mL; MIC ATB combined with Example 3 @8 μg/ml (ABA 107292; with Example 3 @8 μg/ml): 2 µg/mL; MIC ATB combined with Example 6 @8 μg/ml (ABA 107292; with Example 6 @8 μg/ml): 8 µg/mL
